Experiment [1] deals with mixture of human vascular endothelial cells and fibroblasts. In words: Test Example 2: ability to promote angiogenesis (angiogenesis test kit KZ-1000). It counts as cell-based. Conditions: Homo sapiens, 216 h, lumen length, % of control, day 9, read-out: Promotion of angiogenesis (%); for activity at 3 µM: Compound Conc. = 3 μM; for activity at 0.3 µM: Compound Conc. = 0.3 μM. How it is done: Using an angiogenesis test kit containing a mixture of human vascular endothelial cells and fibroblasts [KZ-1000; Kurabo], the ability of test compounds to promote angiogenesis was evaluated. Each test compound was added on days 1, 4, and 7 of the incubation period. On day 9, cells were immunostained with CD31 and photographed. Control cells were cultured under the same conditions, only without the addition of a test compound, and photographed.
The lumen length of the blood vessel was quantified from the obtained images using an angiogenesis-quantification software. The ability (%) of each test compound to promote angiogenesis was calculated from the following equation: The ability to promote angiogenesis (%)=[(measurement with a compound of interest)/(measurement of control)]×100
Example Compounds shown in Table 26 were used as test compounds.
Since bFGF gives a measurement of about 120 in this test, 120 is used as the threshold to determine whether a given compound has the ability to promote angiogenesis.

Experiment [2] deals with T1, chemokine receptor CCR3 (Homo sapiens, UniProt P51677).
T1 sequence (P51677 1-355): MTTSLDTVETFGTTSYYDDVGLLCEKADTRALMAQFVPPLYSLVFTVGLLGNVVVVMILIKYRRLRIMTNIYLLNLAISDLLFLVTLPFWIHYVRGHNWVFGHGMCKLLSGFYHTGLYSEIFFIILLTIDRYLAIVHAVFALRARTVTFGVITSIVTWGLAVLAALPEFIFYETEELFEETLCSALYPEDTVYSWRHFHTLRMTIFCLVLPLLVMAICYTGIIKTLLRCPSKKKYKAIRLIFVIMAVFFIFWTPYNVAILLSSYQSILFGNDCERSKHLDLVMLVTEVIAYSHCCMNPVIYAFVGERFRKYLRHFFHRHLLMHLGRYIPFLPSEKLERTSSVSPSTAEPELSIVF
In words: Affinity to chemokine receptor CCR3. Conditions: at a concentration of 10 μM. It counts as binding. From the text:
Although the compounds of the present invention are novel compounds, compounds having a partly similar skeleton are described, for example, in Published Japanese Translation of PCT International Application No. 2003-507456, WO 01/79170 and WO 00/23076.

In experiment [3] the test system is hippocampal neurons. In words: Test Example 1: ability to promote axonal outgrowth. To be noted: Hippocampal neuron, 216 h, % of control, rat hippocampal neurons, day 9, read-out: Promotion of axonal outgrowth (%); for activity at 3 µM: Compound Conc. = 3 μM. The experiment is classed as cell-based, Wistar rats. How it is done:
According to the method of M. P. Mattson [M. P. Mattson, Brain Res. Rev., 13, 179, (1988)], the hippocampal region was isolated from 18-day embryos of female Wistar rats and the neurons were dispersed using the papain dissociation system. Hippocampal neuron were suspended in 5% Nu-serum+B27 supplement+Neurobasal medium at 5×10^4 cells/well/2 mL. 2 mL of the cell suspension were inoculated on a poly-D-lysine-coated 36φ dish and the neuron were incubated at 37° C. in a 5% CO2 incubator.
On day 3 of the incubation period, 1 mL of the culture medium was replaced with 1 mL of 5% Nu-serum+B27 supplement+Neurobasal medium containing 2 mM AraC. Each test compound was added to the culture on day 3 and day 7 of the incubation period. On day 9, cells were fixed in a 4% paraformaldehyde solution. The nerve axons of the fixed cells were stained with the Rabbit anti-growth-associated protein-43 polyclonal antibody and the stained cells were quantified using Kurabo neuron outgrowth-quantication software.
The ability (%) of each test compound to promote axonal outgrowth was calculated from the following equation: The ability to promote axonal outgrowth (%)=[(measurement with a compound of interest)/(measurement of control)]×100
Example Compounds shown in Table 25 were used as test compounds and were each added at concentrations of 3 μM and 0.3 μM.
Since bFGF gives a measurement of about 120 in this test, 120 is used as the threshold to determine whether a given compound has the ability to promote axonal outgrowth

Counter-ions that a name gives are not always drawn.

Turning to `Cc1nc(OCC(=O)N(C)C2CCN(Cc3cc(F)c(F)c(F)c3)CC2)nc(C)c1N` [Compound 91, 2-(5-amino-4,6-dimethylpyrimidine-2-yloxy)-N-methyl-N-(1-(3,4,5-trifluorobenzyl)piperidine-4-yl)acetamide], the activity at 3 µM in experiment [1] is 124%; in experiment [3] it was 150%. The “affinity to chemokine receptor CCR3” value in experiment [2] turned out to be 18%.
For `Cc1cnc(Cl)nc1NCC(=O)N(C)C1CCN(Cc2ccccc2)CC1` [Compound 109, N-(1-benzylpiperidine-4-yl)-2-(2-chloro-5-methylpyrimidine-4-ylamino)-N-methylacetamide], in that order: 124%, 159% and 16%.
Consider `Cc1nc(OCC(=O)N(C)C2CCN(S(=O)(=O)c3ccccc3)CC2)nc(C)c1N` [Compound 78, 2-(5-amino-4,6-dimethylpyrimidine-2-yloxy)-N-methyl-N-(1-(phenylsulfonyl)piperidine-4-yl)acetamide], for which the activity at 3 µM in experiment [1] came to 144%; in experiment [3], 130%.
For `Cc1nc(OCC(=O)N(C)C2CCN(C(=O)N3CCCCC3)CC2)nc(C)c1N` [Compound 80, 2-(5-amino-4,6-dimethylpyrimidine-2-yloxy)-N-methyl-N-(1-(piperidine-1-carbonyl)piperidine-4-yl)acetamide], the activity at 0.3 µM in experiment [1] turned out to be 116%. In addition, the activity at 3 µM in experiment [3] came to 129%.
In the case of `Cc1nc(OCC(=O)N(C)C2CCN(Cc3ccc(-c4ccccc4)cc3)CC2)nc(C)c1N` [Compound 93, 2-(5-amino-4,6-dimethylpyrimidine-2-yloxy)-N-(1-(biphenyl-4-ylmethyl)piperidine-4-yl)-N-methylacetamide hydrochloride], the activity at 3 µM in experiment [1] was found to be 138%; in experiment [3], 143%.
With `CNc1c(C)nc(OC(C)C(=O)N(C)C2CCN(Cc3ccccc3)CC2)nc1C` (centres unmarked) [Compound 100, N-(1-benzylpiperidine-4-yl)-2-(4,6-dimethyl-5-(methylamino)pyrimidine-2-yloxy)-N-methylpropanamide], the activity at 0.3 µM in experiment [1] came to 116%. In addition, the activity at 3 µM in experiment [3] is 128%.
In the case of `Cc1nc(OCC(=O)N(C)C2CCN(c3ccccc3)CC2)nc(C)c1N` [Compound 82, 2-(5-amino-4,6-dimethylpyrimidine-2-yloxy)-N-methyl-N-(1-phenylpiperidine-4-yl)acetamide], the activity at 3 µM was 130% in experiment [1] and 154% in experiment [3].
For `Cc1cc(C)nc(OCC(=O)N(C)C2CCN(Cc3ccccc3)CC2)n1` [Compound 95, N-(1-benzylpiperidine-4-yl)-2-(4,6-dimethylpyrimidine-2-yloxy)-N-methylacetamide hydrochloride], in that order: 133% and 201%.
On to `Cc1nc(=O)n(CC(=O)N(C)C2CCN(Cc3ccccc3)CC2)c(C)c1N` [Compound 97, 2-(5-amino-4,6-dimethyl-2-oxopyrimidine-1(2H)-yl)-N-(1-benzylpiperidine-4-yl)-N-methylacetamide], for which the activity at 3 µM was determined as 134% in experiment [1] and 127% in experiment [3].
Regarding `Cc1nc(OCC(=O)NC2CCN(C(=O)c3ccc(F)cc3)CC2)nc(C)c1N` [Compound 102, 2-(5-amino-4,6-dimethylpyrimidine-2-yloxy)-N-(1-(4-fluorobenzoyl)piperidine-4-yl)acetamide], the “affinity to chemokine receptor CCR3” value in experiment [2] is on record as 0.0%. For the same molecule, the activity at 3 µM in experiment [3] stood at 233%.
Turning to `Cc1cnc(N)nc1NCC(=O)N(C)C1CCN(Cc2ccccc2)CC1` [Compound 111, 2-(2-amino-5-methylpyrimidine-4-ylamino)-N-(1-benzylpiperidine-4-yl)-N-methylacetamide maleate], the activity at 3 µM in experiment [1] was determined as 121%. Also, in experiment [3] (Compound Conc. = 0.3 μM), the activity at 0.3 µM is 118%.
As for `Cc1cc([N+](=O)[O-])cnc1NCC(=O)N(C)C1CCN(Cc2ccccc2)CC1` [Compound 123, N-(1-benzylpiperidine-4-yl)-N-methyl-2-(3-methyl-5-nitropyridine-2-ylamino)acetamide], the activity at 3 µM was 132% in experiment [1] and 131% in experiment [3].

(Values after US8592435B2, “Nitrogen-containing six-membered aromatic ring derivatives and pharmaceutical products containing the same” (Daiichi Sankyo Company, Limited, priority 2007, dated 2013).)
